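GI50: concentration for 50% inhibition of growth. Definition used: TGI = concentration required for complete inhibition of growth.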
Assays:
Experiment in all cases: NCI-60 cell line screen, 384-well format
SW-620 colon = test system: SW-620 colon
MDA-MB-231 breast = test system: MDA-MB-231 breast
HCC-2998 colon = test system: HCC-2998 colon
IGROV1 ovarian = test system: IGROV1 ovarian
SK-OV-3 ovarian = test system: SK-OV-3 ovarian
MOLT-4 leukemia = test system: MOLT-4 leukemia
NCI-H226 lung = test system: NCI-H226 lung
PC-3 prostate = test system: PC-3 prostate
SNB-19 CNS = test system: SNB-19 CNS
NCI-H460 NSCLC = test system: NCI-H460 NSCLC
T-47D breast = test system: T-47D breast
SK-MEL-2 melanoma = test system: SK-MEL-2 melanoma
OVCAR-3 ovarian = test system: OVCAR-3 ovarian
A549 NSCLC = test system: A549 NSCLC
SF-295 CNS = test system: SF-295 CNS
786-0 renal = test system: 786-0 renal
SK-MEL-5 melanoma = test system: SK-MEL-5 melanoma
NCI-H322M lung = test system: NCI-H322M lung
HCT-116 colon = test system: HCT-116 colon
HS 578T breast = test system: HS 578T breast
HT29 colon = test system: HT29 colon
A498 renal = test system: A498 renal
UO-31 renal = test system: UO-31 renal
SNB-75 CNS = test system: SNB-75 CNS
TK-10 renal = test system: TK-10 renal
OVCAR-4 ovarian = test system: OVCAR-4 ovarian
MCF7 breast = test system: MCF7 breast
UACC-257 melanoma = test system: UACC-257 melanoma
SK-MEL-28 melanoma = test system: SK-MEL-28 melanoma
KM12 colon = test system: KM12 colon
K-562 leukemia = test system: K-562 leukemia
M14 melanoma = test system: M14 melanoma
SF-539 CNS = test system: SF-539 CNS
NCI/ADR-RES ovarian = test system: NCI/ADR-RES ovarian
SN12C renal = test system: SN12C renal
COLO 205 colon = test system: COLO 205 colon
NCI-H23 lung = test system: NCI-H23 lung
OVCAR-5 ovarian = test system: OVCAR-5 ovarian
RPMI-8226 leukemia = test system: RPMI-8226 leukemia
EKVX NSCLC = test system: EKVX NSCLC
MALME-3M melanoma = test system: MALME-3M melanoma
ACHN renal = test system: ACHN renal
HL-60(TB) leukemia = test system: HL-60(TB) leukemia
MDA-MB-468 breast = test system: MDA-MB-468 breast
HOP-62 NSCLC = test system: HOP-62 NSCLC
MDA-MB-435 melanoma = test system: MDA-MB-435 melanoma
NCI-H522 lung = test system: NCI-H522 lung
HCT-15 colon = test system: HCT-15 colon
UACC-62 melanoma = test system: UACC-62 melanoma
HOP-92 NSCLC = test system: HOP-92 NSCLC
OVCAR-8 ovarian = test system: OVCAR-8 ovarian
RXF 393 renal = test system: RXF 393 renal
U251 glioblastoma = test system: U251 glioblastoma
CAKI-1 renal = test system: CAKI-1 renal
DU-145 prostate = test system: DU-145 prostate
LOX IMVI melanoma = test system: LOX IMVI melanoma
SR leukemia = test system: SR leukemia
BT-549 breast = test system: BT-549 breast
SF-268 CNS = test system: SF-268 CNS

C[C@@H]1C[C@H](N)C[C@H](c2ccncc2NC(=O)c2ccc(F)c(-c3c(F)cccc3F)n2)C1
GI50 (SW-620 colon): 14.3 µM | TGI (SW-620 colon): 27.4 µM | GI50 (MDA-MB-231 breast): 13.3 µM | TGI (MDA-MB-231 breast): 26.1 µM | GI50 (HCC-2998 colon): 1.9 µM | TGI (HCC-2998 colon): 4.02 µM | GI50 (IGROV1 ovarian): 7.37 µM | TGI (IGROV1 ovarian): 19.9 µM | GI50 (SK-OV-3 ovarian): 14.3 µM | TGI (SK-OV-3 ovarian): 27.4 µM | GI50 (MOLT-4 leukemia): 3.21 µM | TGI (MOLT-4 leukemia): 12.5 µM | GI50 (NCI-H226 lung): 4.79 µM | TGI (NCI-H226 lung): 20.8 µM | GI50 (PC-3 prostate): 4.76 µM | TGI (PC-3 prostate): 17.3 µM | GI50 (SNB-19 CNS): 15.8 µM | TGI (SNB-19 CNS): 29.3 µM | GI50 (NCI-H460 NSCLC): 6.02 µM | TGI (NCI-H460 NSCLC): 17.2 µM | GI50 (T-47D breast): 4.76 µM | TGI (T-47D breast): 17.7 µM | GI50 (SK-MEL-2 melanoma): 13.4 µM | TGI (SK-MEL-2 melanoma): 26.2 µM | GI50 (OVCAR-3 ovarian): 11.6 µM | TGI (OVCAR-3 ovarian): 23.9 µM | GI50 (A549 NSCLC): 12.5 µM | TGI (A549 NSCLC): 25.5 µM | GI50 (SF-295 CNS): 16.9 µM | TGI (SF-295 CNS): 30.6 µM | GI50 ([…]-0 renal): 6.99 µM | TGI (786-0 renal): 19.5 µM | GI50 (SK-MEL-5 melanoma): 1.74 µM | TGI (SK-MEL-5 melanoma): 4.28 µM | GI50 (NCI-H322M lung): 14.4 µM | TGI (NCI-H322M lung): 27.5 µM | GI50 (HCT-116 colon): 7.07 µM | TGI (HCT-116 colon): 19.9 µM | GI50 (HS 578T breast): 10.2 µM | TGI (HS 578T breast): 21.9 µM | GI50 (HT29 colon): 5.3 µM | TGI (HT29 colon): 14.9 µM | GI50 (A498 renal): 4.81 µM | TGI (A498 renal): 18.1 µM | GI50 (UO-31 renal): 13.5 µM | TGI (UO-31 renal): 26.4 µM | GI50 (SNB-75 CNS): 7.54 µM | TGI (SNB-75 CNS): 21.2 µM | GI50 (TK-10 renal): 12.5 µM | TGI (TK-10 renal): 25.1 µM | GI50 (OVCAR-4 ovarian): 17.2 µM | TGI (OVCAR-4 ovarian): 31.1 µM | GI50 (MCF7 breast): 7.02 µM | TGI (MCF7 breast): 20.3 µM | GI50 (UACC-257 melanoma): 1.65 µM | TGI (UACC-257 melanoma): 3.03 µM | GI50 (SK-MEL-28 melanoma): 5.54 µM | TGI (SK-MEL-28 melanoma): 10.8 µM | GI50 (KM12 colon): 10.4 µM | TGI (KM12 colon): 22.3 µM | GI50 (K-562 leukemia): 2.17 µM | TGI (K-562 leukemia): 10.9 µM | GI50 (M14 melanoma): 3.43 µM | TGI (M14 melanoma): 7.63 µM | GI50 (SF-539 CNS): 7.93 µM | TGI (SF-539 CNS): 20.8 µM | GI50 (NCI/ADR-RES ovarian): 16.7 µM | TGI (NCI/ADR-RES ovarian): 30.6 µM | GI50 (SN12C renal): 14.4 µM | TGI (SN12C renal): 27.6 µM | GI50 (COLO 205 colon): 4.64 µM | TGI (COLO 205 colon): 11.9 µM | GI50 (NCI-H23 lung): 14.5 µM | TGI (NCI-H23 lung): 27.7 µM | GI50 (OVCAR-5 ovarian): 11.7 µM | TGI (OVCAR-5 ovarian): 24 µM | GI50 (RPMI-8226 leukemia): 0.0942 µM | TGI (RPMI-8226 leukemia): 0.674 µM | GI50 (EKVX NSCLC): 6.36 µM | TGI (EKVX NSCLC): 19.3 µM | GI50 (MALME-3M melanoma): 1.49 µM | TGI (MALME-3M melanoma): 3.11 µM | GI50 (ACHN renal): 13.8 µM | TGI (ACHN renal): 26.9 µM | GI50 (HL-60(TB) leukemia): 3.6 µM | TGI (HL-60(TB) leukemia): 16.3 µM | GI50 (MDA-MB-468 breast): 3.42 µM | TGI (MDA-MB-468 breast): 10.2 µM | GI50 (HOP-62 NSCLC): 12.8 µM | TGI (HOP-62 NSCLC): 25.5 µM | GI50 (MDA-MB-435 melanoma): 11.5 µM | TGI (MDA-MB-435 melanoma): 24 µM | GI50 (NCI-H522 lung): 12.5 µM | TGI (NCI-H522 lung): 25.1 µM | GI50 (HCT-15 colon): 9.74 µM | TGI (HCT-15 colon): 23.8 µM | GI50 (UACC-62 melanoma): 8.71 µM | TGI (UACC-62 melanoma): 22 µM | GI50 (HOP-92 NSCLC): 6.4 µM | TGI (HOP-92 NSCLC): 19.7 µM | GI50 (OVCAR-8 ovarian): 14.3 µM | TGI (OVCAR-8 ovarian): 27.5 µM | GI50 (RXF 393 renal): 3.18 µM | TGI (RXF 393 renal): 11.9 µM | GI50 (U251 glioblastoma): 10.5 µM | TGI (U251 glioblastoma): 22.4 µM | GI50 (CAKI-1 renal): 3.78 µM | TGI (CAKI-1 renal): 17.2 µM | GI50 (DU-145 prostate): 15.7 µM | TGI (DU-145 prostate): 29.3 µM | GI50 (LOX IMVI melanoma): 4.22 µM | TGI (LOX IMVI melanoma): 15.6 µM | GI50 (SR leukemia): 1.76 µM | TGI (SR leukemia): 3.56 µM | GI50 (BT-549 breast): 5.53 µM | TGI (BT-549 breast): 19.2 µM | GI50 (SF-268 CNS): 5.86 µM | TGI (SF-268 CNS): 15.9 µM

— PubChem BioAssay (NCI)
